Experimental data published in patent publication US4178442A, “Novel cinnamoyles piperazines and homopiperazines, the method of preparing them and their application in therapeutics” (Delalande S. A., priority 1977, dated 1979).
Like-named read-outs stand apart in the source and are kept apart here.

What was measured:
[1] = system: anaesthetized dog; test: Antiangorous activity on anaesthetized dog: consumption of oxygen in the left ventricule and cardiac effort (KATZ's index); assay type: in vivo; conditions: for inhibition in vivo at 2.5 mg/kg / inhibition in vivo at 0.625 mg/kg / inhibition in vivo at […]: Canis lupus familiaris, iv; for inhibition in vivo at […]: 0.15 mg/kg i.v. slow perfusion
In short: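 Katz index taken as mean arterial pressure multiplied by ECG (D2) heart rate, and myocardial O2 use as coronary sinus flow via modified Morawitz cannula times coronary arteriovenous O2 difference. Animals: pentobarbital-anaesthetized dogs (30 mg/kg i.v.), test compounds infused slowly intravenously.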

[2] = in vivo; conditions: for LD50: read-out: Toxicity: LD50; for mortality: read-out: Toxicity (Mortality)
From the text: *LD50 or percentage of mortality which is given between brackets

[3] = 2.5 mg/kg i.v. slow perfusion, read-out: Diminution in consumption of O2
[4] = 2.5 mg/kg i.v. slow perfusion, read-out: Diminution in the cardiac effort (IK)
[5] = 0.625 mg/kg i.v. slow perfusion
[6] = 0.625 mg/kg i.v. slow perfusion, read-out: Diminution in consumption of O2
[7] = 0.625 mg/kg i.v. slow perfusion, read-out: Diminution in the cardiac effort (IK)
[8] = read-out: Diminution in consumption of O2
[9] = read-out: Diminution in the cardiac effort (IK)

Row | Compound | Diminution in consumption of O2: in time ([1]; 2.5 mg/kg i.v. slow perfusion) [min] | inhibition in vivo at 2.5 mg/kg [1, 3] [%] | inhibition in vivo at 2.5 mg/kg [1, 4] [%] | LD50 ([2]; iv) [mg/kg] | Diminution in consumption of O2: in time [1, 5] [min] | Diminution in the cardiac effort (IK): in time [1, 5] [min] | inhibition in vivo at 0.625 mg/kg [1, 6] [%] | inhibition in vivo at 0.625 mg/kg [1, 7] [%] | mortality ([2]; po, p.o.: 2000 mg/kg) [%] | further results
1 | COc1cc(/C=C/C(=O)N2CCN(CC(O)COc3ccc(CC#N)cc3)CC2)cc(OC)c1OC (stereo not shown) [770 488] | 30 | 78 | 17 | 225 |  |  |  |  |  | Diminution in the cardiac effort (IK): in time ([1]; 2.5 mg/kg i.v. slow perfusion): 15 min
2 | CCOc1c(OC)cc(/C=C/C(=O)N2CCN(CC(O)COc3ccc(C(C)=O)c4c3OCCO4)CC2)cc1OC (stereo not shown) [770 504] | 15 | 52 | 10 | 145 |  |  |  |  |  | 
3 | CCOC(=O)Nc1ccc(OCC(O)CN2CCN(C(=O)/C=C/c3cc(OC)c(OC)c(OC)c3)CC2)c2c1OCCO2 (stereo not shown) [770 525] |  |  |  | 325 | 60 | 60 | 66 | 43 |  | 
4 | COc1cc(/C=C/C(=O)N2CCN(CC(O)COc3ccc(NC(=O)c4ccccc4)c4c3OCCO4)CC2)cc(OC)c1OC (stereo not shown) [770 529] |  |  |  |  | 30 | 30 | 56 | 29 | 22 | 
5 | COc1cc(/C=C/C(=O)N2CCN(CC(O)COc3ccc(NC(=O)C4CCCCC4)c4c3OCCO4)CC2)cc(OC)c1OC (stereo not shown) [770 533] |  |  |  |  | 25 | 25 | 30 | 28 | 10 | 
6 | COc1cc(/C=C/C(=O)N2CCN(CC(O)COc3ccc(C(C)=O)c4c3OCCO4)CC2)cc(OC)c1 (stereo not shown) [770 538] | 15 | 54 | 28 | 198 |  |  |  |  |  | Diminution in the cardiac effort (IK): in time ([1]; 2.5 mg/kg i.v. slow perfusion): 25 min
7 | CCC(=O)Nc1ccc(OCC(O)CN2CCN(C(=O)/C=C/c3cc(OC)c(OC)c(OC)c3)CC2)c2c1OCCO2 (stereo not shown) [770 545] |  |  |  |  | 30 | 15 | 61 | 16 |  | mortality ([2]; iv, 400 mg/kg i.v.): 40%
8 | COc1cc(/C=C/C(=O)N2CCN(CC(O)COc3ccc(C#N)c4c3OCCO4)CC2)cc(OC)c1OC (stereo not shown) [770 585] | 30 | 75 | 41 |  |  |  |  |  | 0 | Diminution in the cardiac effort (IK): in time ([1]; 2.5 mg/kg i.v. slow perfusion): 30 min
9 | COc1cc(/C=C/C(=O)N2CCN(CC(O)COc3cc(C(C)=O)cc4c3OCCO4)CC2)cc(OC)c1OC (stereo not shown) [770 590] | 45 | 60 | 33 | 290 |  |  |  |  |  | Diminution in the cardiac effort (IK): in time ([1]; 2.5 mg/kg i.v. slow perfusion): 45 min
10 | CCCCC(=O)Nc1ccc(OCC(O)CN2CCN(C(=O)/C=C/c3cc(OC)c(OC)c(OC)c3)CC2)c2c1OCCO2 (stereo not shown) [770 601] |  |  |  |  | 30 | 30 | 69 | 25 | 22 | 
11 | CCCC(=O)Nc1ccc(OCC(O)CN2CCN(C(=O)/C=C/c3cc(OC)c(OC)c(OC)c3)CC2)c2c1OCCO2 (stereo not shown) [770 610] |  |  |  |  | 60 | 45 | 56 | 34 | 0 | 
12 | COc1cc(/C=C/C(=O)N2CCN(CC(O)COc3ccc(NC(=O)C(C)(C)C)c4c3OCCO4)CC2)cc(OC)c1OC (stereo not shown) [770 614] |  |  |  |  | 30 | 30 | 49 | 45 | 11 | 
13 | COc1cc(/C=C/C(=O)N2CCN(CC(O)COc3ccc(NC(=O)NC(C)C)c4c3OCCO4)CC2)cc(OC)c1OC (stereo not shown) [770 630] |  |  |  |  |  |  |  |  |  | inhibition in vivo at […] [1, 8]: 58%; inhibition in vivo at […] [1, 9]: 32%; mortality ([2]; iv, 400 mg/kg i.v.): 40%
14 | CCCCNC(=O)Nc1ccc(OCC(O)CN2CCN(C(=O)/C=C/c3cc(OC)c(OC)c(OC)c3)CC2)c2c1OCCO2 (stereo not shown) [770 634] |  |  |  |  |  |  |  |  |  | inhibition in vivo at […] [1, 8]: 69%; inhibition in vivo at […] [1, 9]: 27%; mortality ([2]; iv, 400 mg/kg i.v.): 30%
15 | COc1cc(/C=C/C(=O)N2CCN(CC(O)COc3ccc(NC(=O)C(C)C)c4c3OCCO4)CC2)cc(OC)c1OC (stereo not shown) [770 692] |  |  |  |  | 15 | 30 | 60 | 45 |  | mortality ([2]; iv, 200 mg/kg i.v.): 60%
